Test results from PubChem BioAssay (NCI).
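Cultured in 96-well plates, cells were exposed to test compound for 48 hours across five concentrations. TGI: total growth inhibition.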

Assays:
Experiment in all cases: NCI tumour cell line growth inhibition, 48 h
786-0 renal = tested on: 786-0 renal
A498 renal = tested on: A498 renal
A549 NSCLC = tested on: A549 NSCLC
ACHN renal = tested on: ACHN renal
BT-549 breast = tested on: BT-549 breast
CAKI-1 renal = tested on: CAKI-1 renal
CCRF-CEM leukemia = tested on: CCRF-CEM leukemia
COLO 205 colon = tested on: COLO 205 colon
DU-145 prostate = tested on: DU-145 prostate
EKVX NSCLC = tested on: EKVX NSCLC
HCT-116 colon = tested on: HCT-116 colon
HCT-15 colon = tested on: HCT-15 colon
HL-60(TB) leukemia = tested on: HL-60(TB) leukemia
HOP-62 NSCLC = tested on: HOP-62 NSCLC
HOP-92 NSCLC = tested on: HOP-92 NSCLC
HS 578T breast = tested on: HS 578T breast
HT29 colon = tested on: HT29 colon
IGROV1 ovarian = tested on: IGROV1 ovarian
K-562 leukemia = tested on: K-562 leukemia
KM12 colon = tested on: KM12 colon
LOX IMVI melanoma = tested on: LOX IMVI melanoma
M14 melanoma = tested on: M14 melanoma
MALME-3M melanoma = tested on: MALME-3M melanoma
MCF7 breast = tested on: MCF7 breast
MDA-MB-231 breast = tested on: MDA-MB-231 breast
MDA-MB-435 = tested on: MDA-MB-435
MDA-N = tested on: MDA-N
MOLT-4 leukemia = tested on: MOLT-4 leukemia
NCI-H226 lung = tested on: NCI-H226 lung
NCI-H23 lung = tested on: NCI-H23 lung
NCI-H460 lung = tested on: NCI-H460 lung
NCI-H522 lung = tested on: NCI-H522 lung
NCI/ADR-RES ovarian = tested on: NCI/ADR-RES ovarian
OVCAR-3 ovarian = tested on: OVCAR-3 ovarian
OVCAR-4 ovarian = tested on: OVCAR-4 ovarian
OVCAR-5 ovarian = tested on: OVCAR-5 ovarian
OVCAR-8 ovarian = tested on: OVCAR-8 ovarian
PC-3 prostate = tested on: PC-3 prostate
RPMI-8226 leukemia = tested on: RPMI-8226 leukemia
RXF 393 renal = tested on: RXF 393 renal
SF-268 CNS = tested on: SF-268 CNS
SF-295 CNS = tested on: SF-295 CNS
SF-539 CNS = tested on: SF-539 CNS
SK-MEL-2 melanoma = tested on: SK-MEL-2 melanoma
SK-MEL-28 melanoma = tested on: SK-MEL-28 melanoma
SK-MEL-5 melanoma = tested on: SK-MEL-5 melanoma
SK-OV-3 ovarian = tested on: SK-OV-3 ovarian
SN12C renal = tested on: SN12C renal
SNB-19 CNS = tested on: SNB-19 CNS
SNB-75 CNS = tested on: SNB-75 CNS
SR leukemia = tested on: SR leukemia
SW-620 colon = tested on: SW-620 colon
T-47D breast = tested on: T-47D breast
TK-10 renal = tested on: TK-10 renal
U251 CNS = tested on: U251 CNS
UACC-257 melanoma = tested on: UACC-257 melanoma
UACC-62 melanoma = tested on: UACC-62 melanoma
UO-31 renal = tested on: UO-31 renal
HCC-2998 colon = tested on: HCC-2998 colon

Measured: TGI

O=c1c2ccccc2sc2c(CO)ccc(NCCN3CCCCC3)c12
11.9 µM: HT29 colon
8.37 µM: NCI-H460 lung
4.78 µM: COLO 205 colon
14.8 µM: KM12 colon
11.8 µM: HCT-116 colon
23 µM: BT-549 breast
9.97 µM: NCI/ADR-RES ovarian
7.71 µM: OVCAR-3 ovarian | SR leukemia
16.3 µM: SK-OV-3 ovarian
4.6 µM: RPMI-8226 leukemia
20 µM: OVCAR-5 ovarian
11.4 µM: MCF7 breast
17.4 µM: SF-295 CNS
8.54 µM: SK-MEL-28 melanoma
3.86 µM: NCI-H522 lung
11.2 µM: SW-620 colon
5.36 µM: K-562 leukemia | MOLT-4 leukemia
20.9 µM: HOP-92 NSCLC
10.6 µM: NCI-H226 lung
3.19 µM: SK-MEL-5 melanoma
14.2 µM: U251 CNS
13.3 µM: CAKI-1 renal
14.5 µM: SK-MEL-2 melanoma
11 µM: HL-60(TB) leukemia | LOX IMVI melanoma
7.92 µM: MDA-MB-435
14.6 µM: HOP-62 NSCLC
12.2 µM: 786-0 renal
15 µM: IGROV1 ovarian
19.4 µM: MDA-MB-231 breast
19.5 µM: SNB-75 CNS
13.1 µM: SF-268 CNS
11.6 µM: MDA-N
12.8 µM: A549 NSCLC
9.46 µM: OVCAR-4 ovarian
3.82 µM: M14 melanoma
7.72 µM: RXF 393 renal
7.18 µM: DU-145 prostate
16.2 µM: SF-539 CNS
9.61 µM: A498 renal
3.99 µM: CCRF-CEM leukemia
17.6 µM: SNB-19 CNS
15.6 µM: SN12C renal | UACC-62 melanoma
15.9 µM: HS 578T breast
16.6 µM: EKVX NSCLC
15.1 µM: PC-3 prostate
3.76 µM: UACC-257 melanoma
10.3 µM: NCI-H23 lung
12.1 µM: TK-10 renal
9.45 µM: ACHN renal
20.6 µM: T-47D breast
14 µM: HCT-15 colon
5.2 µM: MALME-3M melanoma
15.5 µM: OVCAR-8 ovarian
4.98 µM: UO-31 renal

O=c1ccc2ccc(S)cc2o1
not listed: CCRF-CEM leukemia | K-562 leukemia
> 100 µM: all other assays above

C[C@@H]1CC[C@@]2(C)C(C(=O)O)=CCCC2[C@@]1(C)CC(=O)c1ccoc1 (stereo partly specified)
not listed: HOP-62 NSCLC | K-562 leukemia | MALME-3M melanoma | HCC-2998 colon
> 25 µM: all other assays above

O=c1c2c3c(sc2[nH]c(=S)n1-c1ccccc1)CCCc1ccc([N+](=O)[O-])cc1-3
85 µM: UACC-62 melanoma
76.6 µM: HOP-92 NSCLC
85.8 µM: SR leukemia
37.1 µM: T-47D breast
38.7 µM: RXF 393 renal
74 µM: NCI/ADR-RES ovarian
25.4 µM: SW-620 colon
62.2 µM: LOX IMVI melanoma
77.3 µM: HCC-2998 colon
27.3 µM: IGROV1 ovarian
36.5 µM: NCI-H522 lung
52 µM: MOLT-4 leukemia
35.3 µM: K-562 leukemia
50.8 µM: HL-60(TB) leukemia
62.7 µM: RPMI-8226 leukemia
72.6 µM: BT-549 breast
61.3 µM: HT29 colon
72.7 µM: HCT-15 colon
not listed: CCRF-CEM leukemia | SF-539 CNS | SNB-75 CNS
> 100 µM: all other assays above
